In brackets after ≈: the same amount, converted by molar mass.
What was measured:
Format in all cases: cell-based, Plasmodium falciparum
[1] = tested on: P. falciparum D6; assay: Malaria SYBR Green Fluorescence Assay, D6 strain; conditions: for D6 / IC50: SYBR Green Assay; for IC50: Plasmodium falciparum
[2] = tested on: P. falciparum W2; assay: Malaria SYBR Green Fluorescence Assay, W2 strain; conditions: for W2 / IC50: SYBR Green Assay; for IC50: Plasmodium falciparum
[3] = tested on: P. falciparum C235; assay: Malaria SYBR Green Fluorescence Assay, C235 strain; conditions: for C235 / IC50: SYBR Green Assay; for IC50: Plasmodium falciparum

| Molecule | D6 (SYBR Green Assay IC50) [1] [µg/mL] | W2 (SYBR Green Assay IC50) [2] [µg/mL] | C235 (SYBR Green Assay IC50) [3] [µg/mL] | D6 [1] [ng/mL] | W2 [2] [ng/mL] | C235 [3] [ng/mL] | further results |
| --- | --- | --- | --- | --- | --- | --- | --- |
| COc1cc(OC)cc(-c2nc(NCCC3CCCN3C)nc(C(Cl)(Cl)Cl)n2)c1 (stereo not drawn) [Cmpd 478] | 0.042 | 0.014 | 0.022 |  |  |  |  |
| ClC(Cl)(Cl)c1nc(-c2ccc(-c3ccccc3)cc2)nc(N2CCCNCC2)n1 [Cmpd 198] |  |  |  | 64 | 40 | 70 |  |
| CS(=O)(=O)c1ccc(-c2nc(N3CCCN(CCO)CC3)nc(C(Cl)(Cl)Cl)n2)cc1 [Cmpd 132] |  |  |  | 64 | 103 | 200 |  |
| CN1CCCC1CCNc1nc(Nc2ccc(OC(F)(F)F)cc2)nc(C(Cl)(Cl)Cl)n1 (stereo not drawn) [Cmpd 295] |  |  |  | 10 | 10 | 23 |  |
| CSc1ccc(-c2nc(N3CCCN(CCO)CC3)nc(C(Cl)(Cl)Cl)n2)cc1 [Cmpd 457] | 0.328 | 0.08 | 0.168 |  |  |  |  |
| ClC(Cl)(Cl)c1nc(-c2ccccc2)nc(N2CCCNCC2)n1 [Cmpd 408] | 0.19 | 0.084 | 0.189 |  |  |  |  |
| CC(=O)Nc1cccc(Nc2nc(C(Cl)(Cl)Cl)nc(C(Cl)(Cl)Cl)n2)c1 [Compound 727, CC(═O)Nc1cccc(Nc2nc(nc(n2)C(Cl)(Cl)Cl)C(Cl)(Cl)Cl)c1] |  |  |  | 256 | 131 | 319 |  |
| ClC(Cl)(Cl)c1nc(Nc2ccncc2)nc(-c2ccc(N3CCCC3)cc2)n1 [Compound 744, ClC(Cl)(Cl)C1═NC(NC2═CC═NC═C2)═NC(═N1)C1═CC═C(C═C1)N1CCCC1] |  |  |  | 190 | 188 | 290 |  |
| COc1cc(OC)cc(-c2nc(NCC(C)(C)N)nc(C(Cl)(Cl)Cl)n2)c1 [Cmpd 481] | 0.035 | 0.012 | 0.017 |  |  |  |  |
| Clc1cc(Cl)cc(-c2nc(N3CCCNCC3)nc(C(Cl)(Cl)Cl)n2)c1 [Cmpd 204] |  |  |  | 231 | 78 | 214 |  |
| FC(F)(F)OC1═CC═C(NC2═NC(═NC(═N2)C(Cl)(Cl)Cl)N2CC3CC2CN3)C═C1 [Compound 725] |  |  |  | 64 | 53 | 93 |  |
| NC1CCN(c2nc(-c3ccc(F)cc3)nc(C(Cl)(Cl)Cl)n2)CC1 [Example 2, 1-(4-(4-fluorophenyl)-6-(trichloromethyl)-1,3,5-triazin-2-yl)piperidin-4-amine] |  |  |  |  |  |  | IC50 [1]: 0.137 µg/mL (≈ 0.351 µM); IC50 [2]: 0.078 µg/mL (≈ 0.2 µM); IC50 [3]: 0.15 µg/mL (≈ 0.384 µM) |
| CN(Cc1ccccc1-c1cccnc1)c1nc(-c2ccc(S(C)(=O)=O)cc2)nc(C(Cl)(Cl)Cl)n1 [Cmpd 129] |  |  |  | 170 | 102 | 233 |  |
| CCC(N)(CC)CNc1nc(-c2ccc(Cl)c(Cl)c2)nc(C(Cl)(Cl)Cl)n1 [Cmpd 388] | 0.132 | 0.098 | 0.153 |  |  |  |  |
| NC1CCN(c2nc(-c3ccccc3[N+](=O)[O-])nc(C(Cl)(Cl)Cl)n2)CC1 [Compound 632, NC1CCN(CC1)C1═NC(═NC(═N1)C(Cl)(Cl)Cl)C1═C(C═CC═C1)[N+]([O−])═O] | 0.064 | 0.04 | 0.058 |  |  |  |  |
| CSC1═CC═C(C═C1)C1═NC(═NC(NC2CCN(CC(C)C)CC2)═N1)C(Cl)(Cl)Cl [Compound 695] |  |  |  | 582 | 418 | 675 |  |
| Oc1ccc(Nc2nc(NCCN3CCCC3)nc(C(Cl)(Cl)Cl)n2)cc1 [Compound 745, 4-((4-((2-(pyrrolidin-1-yl)ethyl)amino)-6-(trichloromethyl)-1,3,5-triazin-2-yl)amino)phenol] |  |  |  |  |  |  | IC50 [1]: 0.144 µg/mL (≈ 0.345 µM); IC50 [2]: 0.08 µg/mL (≈ 0.192 µM); IC50 [3]: 0.389 µg/mL (≈ 0.931 µM) |
| COc1cccc(-c2nc(NCCC3CCCN3C)nc(C(Cl)(Cl)Cl)n2)c1 (stereo not drawn) [Cmpd 236] |  |  |  | 52 | 50 | 60 |  |
| CN1CCC(CNc2nc(-c3cccc(C(F)(F)F)c3)nc(C(Cl)(Cl)Cl)n2)CC1 [Cmpd 508] | 0.034 | 0.013 | 0.022 |  |  |  |  |
| ClC(Cl)(Cl)c1nc(NCCc2ccccn2)nc(-c2ccccc2)n1 [Cmpd 188] |  |  |  | 176 | 42 | 197 |  |
| CCN(CC)CCNc1nc(-c2ccc(Cl)cc2)nc(C(Cl)(Cl)Cl)n1 [Cmpd 286] |  |  |  | 5 | 2 | 10 |  |
| CS(=O)(=O)c1ccc(-c2nc(NCc3ccccn3)nc(C(Cl)(Cl)Cl)n2)cc1 [Cmpd 177] |  |  |  | 355 | 186 | 565 |  |
| COc1ncccc1Nc1nc(N2CCCNCC2)nc(C(Cl)(Cl)Cl)n1 [Cmpd 378] | 0.05 | 0.059 | 0.098 |  |  |  |  |

| Molecule | D6 (SYBR Green Assay IC50) [1] [µg/mL] | W2 (SYBR Green Assay IC50) [2] [µg/mL] | C235 (SYBR Green Assay IC50) [3] [µg/mL] | D6 [1] [ng/mL] | W2 [2] [ng/mL] | C235 [3] [ng/mL] | further results |
| --- | --- | --- | --- | --- | --- | --- | --- |
| NC1CCCCC1Nc1nc(-c2ccc(Cl)c(Cl)c2)nc(C(Cl)(Cl)Cl)n1 (stereo not drawn) [Compound 740, NC1CCCCC1NC1═NC(═NC(═N1)C1═CC(Cl)═C(Cl)C═Cl)C(Cl)(Cl)Cl] |  |  |  | 38 | 11 | 23 |  |
| CC(C)CN1CCC(Nc2nc(-c3cccc(Cl)c3)nc(C(Cl)(Cl)Cl)n2)CC1 [Compound 701, CC(C)CN1CCC(CC1)NC1═NC(═NC(═N1)C1═CC(Cl)═CC═C1)C(Cl)(Cl)Cl] |  |  |  | 282 | 195 | 351 |  |
| CC(C)N1CCC(CNc2nc(-c3ccc4ccccc4c3)nc(C(Cl)(Cl)Cl)n2)CC1 [Cmpd 494] | 0.038 | 0.018 | 0.023 |  |  |  |  |
| CN1CCC(CNc2nc(-c3ccc(Cl)c(Cl)c3)nc(C(Cl)(Cl)Cl)n2)CC1 [Cmpd 505] | 0.029 | 0.017 | 0.02 |  |  |  |  |
| CN(C)CCCNc1nc(-c2ccc(S(C)(=O)=O)cc2)nc(C(Cl)(Cl)Cl)n1 [Cmpd 442] | 0.002 | 0.001 | 0.002 |  |  |  |  |
| CS(═O)(═O)C1═CC═C(C═C1)C1═NC(NCC2(N)CCCCC2)═NC(═N1)C(Cl)(Cl)Cl [Compound 665] |  |  |  | 76 | 76 | 147 |  |
| FC(F)(F)c1cccc(-c2nc(NCCc3ccccn3)nc(C(Cl)(Cl)Cl)n2)c1 [Cmpd 186] |  |  |  | 494 | 115 | 499 |  |
| CN(C)CCCNc1nc(-c2ccc(F)cc2)nc(C(Cl)(Cl)Cl)n1 [Cmpd 448] | 0.035 | 0.007 | 0.04 |  |  |  |  |
| CC(C)N1CCC(CNc2nc(-c3ccc(C(Cl)(Cl)Cl)cc3)nc(C(Cl)(Cl)Cl)n2)CC1 [Cmpd 492] | 0.095 | 0.033 | 0.052 |  |  |  |  |
| CN(C)CCCNc1nc(-c2ccccc2)nc(C(Cl)(Cl)Cl)n1 [Cmpd 443] | 0.145 | 0.043 | 0.161 |  |  |  |  |
| CN1CCCN(c2nc(-c3ccccc3)nc(C(Cl)(Cl)Cl)n2)CC1 [Cmpd 409] | 0.118 | 0.043 | 0.119 |  |  |  |  |
| OCCN1CCCN(c2nc(-c3cccc(C(F)(F)F)c3)nc(C(Cl)(Cl)Cl)n2)CC1 [Cmpd 456] | 0.207 | 0.091 | 0.136 |  |  |  |  |
| CN1CCN(c2nc(-c3ccccc3)nc(C(Cl)(Cl)Cl)n2)CC1 [Cmpd 239] |  |  |  | 192 | 125 | 158 |  |
| CN1CCCN(c2nc(-c3ccc(F)cc3)nc(C(Cl)(Cl)Cl)n2)CC1 [Cmpd 384] | 0.025 | 0.029 | 0.059 |  |  |  |  |
| Cc1ccc(-c2nc(NCC3(N)CC3)nc(C(Cl)(Cl)Cl)n2)cc1 [Compound 681, CC1═CC═C(C═C1)C1═NC(NCC2(N)CC2)═NC(═N1)C(Cl)(Cl)Cl] |  |  |  | 593 | 328 | 750 |  |
| CC1═CC═C(C═C1)C1═NC(NCC2(N)CCCCC2)═NC(═N1)C(Cl)(Cl)Cl [Compound 660] |  |  |  | 8 | 9 | 17 |  |
| CSc1ccc(-c2nc(NC3CC(C)(C)NC(C)(C)C3)nc(C(Cl)(Cl)Cl)n2)cc1 [Cmpd 323] |  |  |  | 20 | 17 | 51 |  |
| ClC(Cl)(Cl)c1nc(NCCc2cnccn2)nc(-c2ccccc2)n1 [Cmpd 540] | 0.151 | 0.088 | 0.213 |  |  |  |  |
| NC1(CNc2nc(-c3ccc(Cl)cc3)nc(C(Cl)(Cl)Cl)n2)CC1 [Compound 678, NC1(CNC2═NC(═NC(═N2)C2═CC═C(Cl)C═C2)C(Cl)(Cl)Cl)CC1] |  |  |  | 11 | 12 | 20 |  |
| COc1cc(OC)cc(-c2nc(N3CCC(N)CC3)nc(C(Cl)(Cl)Cl)n2)c1 [Compound 635, COC1═CC(═CC(OC)═C1)C1═NC(═NC(═N1)C(Cl)(Cl)Cl)N1CCC(N)CC1] | 0.259 | 0.135 | 0.218 |  |  |  |  |
| CN1CCN(c2nc(-c3ccc(F)cc3)nc(C(Cl)(Cl)Cl)n2)CC1 [Cmpd 390] | 0.495 | 0.143 | 0.567 |  |  |  |  |
| NC1CCN(c2nc(-c3cccc(Cl)c3)nc(C(Cl)(Cl)Cl)n2)CC1 [Compound 633, NC1CCN(CC1)C1═NC(═NC(═N1)C(Cl)(Cl)Cl)C1═CC(Cl)═CC═C1] | 0.01 | 0.008 | 0.01 |  |  |  |  |

From US9334246B2, “Substituted triazines for malaria treatment and chemoprophylaxis” (The United States of America, as represented by the …, priority 2013, dated 2016)
